pIC50: −log10 of the molar value.
How the values were obtained:
pPKB S473 in A2058 cells = assay: In-cell Western blot, pPKB S473; format: cell-based; conditions: Homo sapiens, 1 hour treatment, signal normalized to α-tubulin
Method: (§1) Cells are fixed with 4% paraformaldehyde for 30 minutes at room temperature, washed 2 times with 1% BSA in PBS, permeabilized with 0.1% Triton X-100 in PBS/1% BSA for 30 minutes at room temperature and blocked with 5% goat serum in PBS/1% BSA/0.1% Triton X-100 for 30 minutes at room temperature. […] Cells are washed 3 times 5 minutes with PBS/1% BSA/0.1% triton and plate scanned with the Odyssey Infrared Scanning system using both 700 and 800 nm channels. […] To correct for background staining in the data analysis wells are treated only with secondary antibodies.
(§2) For data analysis the mean background signal from channel 700 nm and 800 nm are subtracted from each signal in channel 700 nm and 800 nm, respectively.
(§3) IC50 values of each compound are determined by plotting the normalized pPBK S473 and pS6 S235/S236 signals, respectively, versus the compound concentrations (in logarithmic scale) and then by fitting a sigmoidal dose-response curve with variable slope to the data using GraphPad™ Prism.

[1] = test system: pS6 S235/S236 in A2058 cells; assay: In-cell Western blot, pS6 S235/S236; format: cell-based; conditions: Homo sapiens, 1 hour treatment, signal normalized to α-tubulin
Method: as §1, §2, §3

P110α = P110α (Homo sapiens, UniProt P42336); assay: P110α IC50 (Table 12, comparative biological activities); format: biochemical
P110α, sequence (P42336 whole entry, species assumed): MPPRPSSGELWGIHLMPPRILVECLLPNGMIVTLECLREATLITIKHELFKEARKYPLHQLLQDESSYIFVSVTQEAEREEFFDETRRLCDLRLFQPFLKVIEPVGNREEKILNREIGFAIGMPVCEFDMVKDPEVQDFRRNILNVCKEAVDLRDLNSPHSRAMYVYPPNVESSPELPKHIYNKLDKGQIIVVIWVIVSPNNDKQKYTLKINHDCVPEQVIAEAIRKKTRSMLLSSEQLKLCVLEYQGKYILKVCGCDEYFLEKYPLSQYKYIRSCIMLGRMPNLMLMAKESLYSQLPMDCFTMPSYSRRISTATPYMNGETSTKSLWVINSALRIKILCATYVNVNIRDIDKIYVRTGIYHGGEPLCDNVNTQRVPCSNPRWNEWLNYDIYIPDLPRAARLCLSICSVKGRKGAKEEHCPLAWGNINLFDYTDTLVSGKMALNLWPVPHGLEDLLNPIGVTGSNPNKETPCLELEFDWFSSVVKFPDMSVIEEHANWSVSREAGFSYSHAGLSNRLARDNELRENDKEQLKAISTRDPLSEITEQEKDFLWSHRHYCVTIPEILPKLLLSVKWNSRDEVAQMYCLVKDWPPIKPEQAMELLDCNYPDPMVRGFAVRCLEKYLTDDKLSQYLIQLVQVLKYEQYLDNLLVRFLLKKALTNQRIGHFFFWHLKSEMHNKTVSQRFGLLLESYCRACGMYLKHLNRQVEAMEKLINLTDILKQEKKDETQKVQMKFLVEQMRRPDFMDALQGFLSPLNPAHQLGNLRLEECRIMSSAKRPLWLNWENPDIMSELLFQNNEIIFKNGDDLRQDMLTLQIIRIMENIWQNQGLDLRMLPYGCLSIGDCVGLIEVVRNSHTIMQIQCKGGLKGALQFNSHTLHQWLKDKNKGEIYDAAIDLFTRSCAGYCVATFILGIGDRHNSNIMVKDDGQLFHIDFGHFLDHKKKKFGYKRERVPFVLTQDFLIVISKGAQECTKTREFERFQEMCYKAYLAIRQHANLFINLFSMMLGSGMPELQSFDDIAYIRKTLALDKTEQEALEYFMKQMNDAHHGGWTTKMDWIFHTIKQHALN
P110α, sequence (P27986 whole entry partner, species assumed): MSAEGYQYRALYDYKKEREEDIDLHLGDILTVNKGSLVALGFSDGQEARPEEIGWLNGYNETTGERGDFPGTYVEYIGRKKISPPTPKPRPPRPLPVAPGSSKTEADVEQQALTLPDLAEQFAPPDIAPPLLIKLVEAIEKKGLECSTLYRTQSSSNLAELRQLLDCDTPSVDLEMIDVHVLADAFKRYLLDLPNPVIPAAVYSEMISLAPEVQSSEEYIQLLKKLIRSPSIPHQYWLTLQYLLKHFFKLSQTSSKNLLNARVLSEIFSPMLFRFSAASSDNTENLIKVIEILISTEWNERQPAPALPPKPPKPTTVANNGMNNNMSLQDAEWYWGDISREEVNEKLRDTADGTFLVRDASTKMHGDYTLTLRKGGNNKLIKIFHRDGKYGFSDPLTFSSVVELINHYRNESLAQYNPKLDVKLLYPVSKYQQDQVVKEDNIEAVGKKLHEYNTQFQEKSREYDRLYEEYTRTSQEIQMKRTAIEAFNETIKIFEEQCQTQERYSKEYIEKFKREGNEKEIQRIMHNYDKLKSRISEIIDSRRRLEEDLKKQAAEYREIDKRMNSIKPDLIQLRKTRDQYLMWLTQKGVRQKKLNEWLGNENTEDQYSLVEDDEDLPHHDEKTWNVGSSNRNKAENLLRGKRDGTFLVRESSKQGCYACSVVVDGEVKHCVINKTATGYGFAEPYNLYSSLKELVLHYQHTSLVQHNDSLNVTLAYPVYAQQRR

`Nc1cc(C(F)(F)F)c(-c2nc(N3CCOCC3)nc(N3CCOCC3)n2)cn1` showed a pIC50 (pPKB S473 in A2058 cells; A2058, 1 h) of 6.83 and a pIC50 ([1]; A2058, 1 h) of 6.47.

In the case of `C[C@H]1COCCN1c1nc(-c2cnc(N)cc2C(F)F)nc(N2CCOC[C@@H]2C)n1`, the pIC50 (pPKB S473 in A2058 cells; A2058, 1 h) was 6.81 and the pIC50 ([1]; A2058, 1 h) was 6.67.

In the case of `C[C@H]1COCCN1c1nc(-c2cnc(N)cc2C(F)(F)F)nc(N2CCOC[C@@H]2C)n1`, the pIC50 (pPKB S473 in A2058 cells; A2058, 1 h) was 6.59 and the pIC50 ([1]; A2058, 1 h) was 6.36.

In the case of `C[C@H]1COCCN1c1nc(-c2cnc(N)nc2C(F)F)nc(N2CCOC[C@@H]2C)n1`, the pIC50 ([1]; A2058, 1 h) was 7.01.

`C[C@H]1COCCN1c1nc(-c2cnc(N)nc2C(F)(F)F)nc(N2CCOC[C@@H]2C)n1` showed a pIC50 (pPKB S473 in A2058 cells; A2058, 1 h) of 6.93 and a pIC50 ([1]; A2058, 1 h) of 6.65.

Compound `Nc1ncc(-c2nc(N3CCOCC3)cc(N3CCOCC3)n2)c(C(F)F)n1` has a pIC50 ([1]; A2058, 1 h) of 6.83.

`C[C@H]1COCCN1c1cc(-c2cnc(N)nc2C(F)F)nc(N2CCOCC2)n1` gave a pIC50 (pPKB S473 in A2058 cells; A2058, 1 h) of 7.11 and a pIC50 ([1]; A2058, 1 h) of 6.84.

In the case of `C[C@H]1OC(=O)N(c2nc(-c3cnc(N)nc3C(F)F)nc(N3CCOCC3)n2)[C@H]1CO`, the pIC50 (pPKB S473 in A2058 cells; A2058, 1 h) was 7.00 and the pIC50 (P110α) was 6.79.

Compound `Nc1cc(C(F)F)c(-c2nc(N3CCOCC3)nc(N3CCOCC3=O)n2)cn1` [Example 35, 4-[4-[6-amino-4-(difluoromethyl)-3-pyridyl]-6-morpholino-1,3,5-triazin-2-yl]morpholin-3-one] has a pIC50 (pPKB S473 in A2058 cells; A2058, 1 h) of 6.68 and a pIC50 ([1]; A2058, 1 h) of 6.64.

For `Nc1ncc(-c2nc(N3CCOCC3)nc(N3CCOCC3=O)n2)c(C(F)F)n1` [Example 36, 4-[4-[2-amino-4-(difluoromethyl)pyrimidin-5-yl]-6-morpholino-1,3,5-triazin-2-yl]morpholin-3-one], the pIC50 (pPKB S473 in A2058 cells; A2058, 1 h) was 7.00 and the pIC50 ([1]; A2058, 1 h) was 6.82.

`C[C@@H]1COCCN1c1nc(-c2cnc(N)cc2C(F)F)nc(-c2cnc(N)cc2C(F)F)n1` [Example 43, 5-[4-[6-amino-4-(difluoromethyl)-3-pyridyl]-6-[(3R)-3-methylmorpholin-4-yl]-1,3,5-triazin-2-yl]-4-(difluoromethyl)pyridin-2-amine] gave a pIC50 (pPKB S473 in A2058 cells) of 6.42 and a pIC50 [1] of 6.81.

`Nc1cc(C(F)(F)F)c(-c2nc(N3CCNCC3)nc(N3CCOCC3)n2)cn1` [reference compound] showed a pIC50 (pPKB S473 in A2058 cells; A2058, 1 h) of 6.52 and a pIC50 ([1]; A2058, 1 h) of 6.13.

`Nc1ncc(-c2nc(N3CCNCC3)nc(N3CCOCC3)n2)c(C(F)(F)F)n1` [reference compound] showed a pIC50 (pPKB S473 in A2058 cells; A2058, 1 h) of 6.94 and a pIC50 ([1]; A2058, 1 h) of 6.38.

`Nc1cc(C(F)(F)F)c(-c2nc(N3CCOCC3)nc(N3CCSCC3)n2)cn1` [reference compound] was tested, and the pIC50 (pPKB S473 in A2058 cells; A2058, 1 h) was 6.51 and the pIC50 ([1]; A2058, 1 h) was 6.25.

`Nc1ncc(-c2nc(N3CCOCC3)nc(N3CCSCC3)n2)c(C(F)(F)F)n1` [reference compound] gave a pIC50 (pPKB S473 in A2058 cells; A2058, 1 h) of 6.46 and a pIC50 ([1]; A2058, 1 h) of 6.00.

`C[C@H]1OC(=O)N(c2nc(-c3cnc(N)nc3C(F)(F)F)nc(N3CCOCC3)n2)[C@H]1CO` [reference compound] gave a pIC50 (pPKB S473 in A2058 cells; A2058, 1 h) of 6.16 and a pIC50 (P110α) of 5.73.

From patent publication US11186591B2, “Difluoromethyl-aminopyridines and difluoromethyl-aminopyrimidines” (TORQUR AG, priority 2014, dated 2021)
